In the kinase profiling compilation of Christmann-Franck et al. (2016):

Columns and labels:
Assay in all cases: radiometric filter-binding kinase assay, Kinaseprofiler
[1] = system: IRAK4 (human), Q9NWZ3 [A81V]; conditions: compound 1.0 µM; ATP 200 µM
[2] = system: RPS6KB1 (human), P23443 [T412E]; conditions: compound 1.0 µM; ATP 15 µM
[3] = molecular target: NEK2 (human) (UniProt P51955); conditions: compound 1.0 µM; ATP 120 µM
[4] = molecular target: RPS6KA4 KD1 KD2 (human) (UniProt O75676); conditions: compound 1.0 µM; ATP 45 µM
[5] = molecular target: PRKCI (human) (UniProt P41743); conditions: compound 1.0 µM; ATP 155 µM
Sequence of PRKCI (human) (P41743 whole entry, looked up): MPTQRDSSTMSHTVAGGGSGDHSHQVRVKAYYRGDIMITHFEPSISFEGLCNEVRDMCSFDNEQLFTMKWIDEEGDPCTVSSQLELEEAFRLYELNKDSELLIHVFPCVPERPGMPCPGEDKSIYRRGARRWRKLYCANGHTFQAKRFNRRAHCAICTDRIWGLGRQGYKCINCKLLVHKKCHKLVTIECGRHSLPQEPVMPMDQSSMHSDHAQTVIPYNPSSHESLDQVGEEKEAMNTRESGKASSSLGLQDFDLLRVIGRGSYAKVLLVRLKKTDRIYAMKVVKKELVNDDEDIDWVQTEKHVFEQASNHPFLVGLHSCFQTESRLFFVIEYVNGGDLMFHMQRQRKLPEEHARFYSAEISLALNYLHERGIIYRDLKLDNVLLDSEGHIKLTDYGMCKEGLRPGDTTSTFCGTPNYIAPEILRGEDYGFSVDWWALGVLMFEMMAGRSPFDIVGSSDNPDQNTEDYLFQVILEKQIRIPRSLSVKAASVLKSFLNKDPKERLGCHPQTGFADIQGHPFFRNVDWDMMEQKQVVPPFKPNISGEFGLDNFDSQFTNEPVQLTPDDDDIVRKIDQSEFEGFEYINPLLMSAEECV

[6] = molecular target: SYK (human) (UniProt P43405); conditions: compound 1.0 µM; ATP 15 µM
[7] = molecular target: CSNK2A1 CSNK2B CSNK2A2 (human) (UniProt P19784+P68400+P67870); conditions: compound 1.0 µM; ATP 15 µM
[8] = molecular target: STK33 (human) (UniProt Q9BYT3); conditions: compound 1.0 µM; ATP 155 µM
[9] = molecular target: EGFR (human) (UniProt P00533); conditions: compound 1.0 µM; ATP 10 µM
[10] = molecular target: RPS6KA5 KD1 KD2 (human) (UniProt O75582); conditions: compound 1.0 µM; ATP 90 µM
Sequence of RPS6KA5 KD1 KD2 (human) (O75582 whole entry, looked up): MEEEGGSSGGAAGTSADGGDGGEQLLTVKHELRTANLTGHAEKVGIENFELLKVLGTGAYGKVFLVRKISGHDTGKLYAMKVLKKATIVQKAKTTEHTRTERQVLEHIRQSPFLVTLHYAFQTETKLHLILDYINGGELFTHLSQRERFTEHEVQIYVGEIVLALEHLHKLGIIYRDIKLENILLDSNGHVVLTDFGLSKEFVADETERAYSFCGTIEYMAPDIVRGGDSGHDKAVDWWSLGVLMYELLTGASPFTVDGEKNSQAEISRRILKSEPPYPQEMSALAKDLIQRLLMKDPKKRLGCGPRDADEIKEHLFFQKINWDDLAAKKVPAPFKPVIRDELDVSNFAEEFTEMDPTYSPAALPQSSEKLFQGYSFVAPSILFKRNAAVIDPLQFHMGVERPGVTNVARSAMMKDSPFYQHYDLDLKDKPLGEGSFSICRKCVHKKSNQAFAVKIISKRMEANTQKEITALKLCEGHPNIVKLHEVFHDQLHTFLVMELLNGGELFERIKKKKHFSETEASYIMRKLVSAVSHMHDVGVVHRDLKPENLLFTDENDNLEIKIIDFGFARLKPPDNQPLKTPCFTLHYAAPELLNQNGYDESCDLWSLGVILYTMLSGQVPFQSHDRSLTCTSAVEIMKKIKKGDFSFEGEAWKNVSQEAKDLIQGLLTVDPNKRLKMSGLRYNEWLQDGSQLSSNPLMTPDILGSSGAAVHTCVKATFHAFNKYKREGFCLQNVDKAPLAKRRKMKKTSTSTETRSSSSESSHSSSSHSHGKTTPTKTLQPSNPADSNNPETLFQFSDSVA

[11] = molecular target: TYRO3 (human) (UniProt Q06418); conditions: compound 1.0 µM; ATP 45 µM
Sequence of TYRO3 (human) (Q06418 whole entry, looked up): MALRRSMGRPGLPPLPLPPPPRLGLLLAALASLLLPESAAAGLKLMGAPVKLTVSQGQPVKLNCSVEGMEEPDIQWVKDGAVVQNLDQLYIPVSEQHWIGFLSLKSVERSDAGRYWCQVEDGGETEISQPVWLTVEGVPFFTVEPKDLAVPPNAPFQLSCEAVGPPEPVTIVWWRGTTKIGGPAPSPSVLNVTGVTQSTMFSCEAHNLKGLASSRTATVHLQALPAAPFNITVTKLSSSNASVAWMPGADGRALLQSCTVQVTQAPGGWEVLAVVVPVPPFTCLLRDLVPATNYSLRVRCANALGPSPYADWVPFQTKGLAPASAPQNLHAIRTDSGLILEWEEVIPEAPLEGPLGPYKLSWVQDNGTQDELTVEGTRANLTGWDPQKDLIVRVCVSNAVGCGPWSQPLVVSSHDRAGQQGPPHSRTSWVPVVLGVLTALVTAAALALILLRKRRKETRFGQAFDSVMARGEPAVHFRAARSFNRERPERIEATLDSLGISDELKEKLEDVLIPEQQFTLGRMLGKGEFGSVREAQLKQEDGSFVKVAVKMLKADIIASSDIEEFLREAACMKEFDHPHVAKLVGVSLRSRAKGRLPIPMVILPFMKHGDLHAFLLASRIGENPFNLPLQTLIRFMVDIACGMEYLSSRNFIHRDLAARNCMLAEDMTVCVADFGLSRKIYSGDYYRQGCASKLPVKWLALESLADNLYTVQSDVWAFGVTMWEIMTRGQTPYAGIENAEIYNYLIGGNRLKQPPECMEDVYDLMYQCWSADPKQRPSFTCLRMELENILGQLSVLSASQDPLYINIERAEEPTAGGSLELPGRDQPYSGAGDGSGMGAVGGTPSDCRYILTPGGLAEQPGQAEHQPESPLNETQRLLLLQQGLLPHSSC

[12] = molecular target: PDPK1 (human) (UniProt O15530); conditions: compound 1.0 µM; ATP 10 µM
Sequence of PDPK1 (human) (O15530 whole entry, looked up): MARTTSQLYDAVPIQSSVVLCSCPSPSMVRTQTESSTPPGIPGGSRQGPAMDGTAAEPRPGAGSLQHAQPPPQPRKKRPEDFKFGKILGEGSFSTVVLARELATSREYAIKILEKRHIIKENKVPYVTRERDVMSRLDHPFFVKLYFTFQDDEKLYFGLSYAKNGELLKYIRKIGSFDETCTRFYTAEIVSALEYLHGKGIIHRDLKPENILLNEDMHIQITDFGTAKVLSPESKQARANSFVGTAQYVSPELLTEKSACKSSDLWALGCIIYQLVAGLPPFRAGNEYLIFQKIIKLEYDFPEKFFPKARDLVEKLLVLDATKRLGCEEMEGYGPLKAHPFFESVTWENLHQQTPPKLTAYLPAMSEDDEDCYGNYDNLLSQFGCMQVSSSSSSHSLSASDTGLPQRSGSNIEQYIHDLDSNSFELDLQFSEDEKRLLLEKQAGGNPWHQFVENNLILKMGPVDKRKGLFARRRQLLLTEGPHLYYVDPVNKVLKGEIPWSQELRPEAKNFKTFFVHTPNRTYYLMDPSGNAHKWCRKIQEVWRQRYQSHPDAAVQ

[13] = molecular target: PAK7 (human) (UniProt Q9P286); conditions: compound 1.0 µM; ATP 15 µM
[14] = molecular target: KIT (human) (UniProt P10721); conditions: compound 1.0 µM; ATP 200 µM
[15] = molecular target: PRKCQ (human) (UniProt Q04759); conditions: compound 1.0 µM; ATP 15 µM
[16] = system: EGFR (human), P00533 [L861Q]; conditions: compound 1.0 µM; ATP 10 µM
[17] = molecular target: CDC42BPB (human) (UniProt Q9Y5S2); conditions: compound 1.0 µM; ATP 10 µM
[18] = molecular target: NEK6 (human) (UniProt Q9HC98); conditions: compound 1.0 µM; ATP 45 µM
[19] = molecular target: PLK2 (human) (UniProt Q9NYY3); conditions: compound 1.0 µM; ATP 120 µM
[20] = molecular target: SRPK1 (human) (UniProt Q96SB4); conditions: compound 1.0 µM; ATP 10 µM
Sequence of SRPK1 (human) (Q96SB4 whole entry, looked up): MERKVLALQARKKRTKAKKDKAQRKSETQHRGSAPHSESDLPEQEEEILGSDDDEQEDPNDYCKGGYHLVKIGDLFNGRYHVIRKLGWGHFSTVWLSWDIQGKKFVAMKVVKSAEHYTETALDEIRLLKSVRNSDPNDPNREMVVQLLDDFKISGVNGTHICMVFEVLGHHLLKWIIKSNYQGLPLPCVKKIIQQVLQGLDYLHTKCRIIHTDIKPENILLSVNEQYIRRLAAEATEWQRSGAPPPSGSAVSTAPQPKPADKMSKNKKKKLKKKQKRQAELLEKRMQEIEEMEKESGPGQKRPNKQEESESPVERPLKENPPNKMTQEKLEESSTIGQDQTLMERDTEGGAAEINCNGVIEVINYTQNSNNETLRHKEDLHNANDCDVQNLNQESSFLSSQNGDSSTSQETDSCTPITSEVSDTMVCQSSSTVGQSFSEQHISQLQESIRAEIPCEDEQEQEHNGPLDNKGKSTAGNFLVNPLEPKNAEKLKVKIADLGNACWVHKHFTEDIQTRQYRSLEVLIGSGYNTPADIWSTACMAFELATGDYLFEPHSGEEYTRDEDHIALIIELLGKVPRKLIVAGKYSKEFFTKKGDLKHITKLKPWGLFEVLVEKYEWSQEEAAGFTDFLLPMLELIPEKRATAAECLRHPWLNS

[21] = molecular target: JAK2 JH1 catalytic (human) (UniProt O60674); conditions: compound 1.0 µM; ATP 45 µM
[22] = system: HIPK2 (human), Q9H2X6 [I471N]; conditions: compound 1.0 µM; ATP 10 µM

Sequence of RPS6KB1 (human), P23443 [T412E] (P23443 whole entry T412E, looked up): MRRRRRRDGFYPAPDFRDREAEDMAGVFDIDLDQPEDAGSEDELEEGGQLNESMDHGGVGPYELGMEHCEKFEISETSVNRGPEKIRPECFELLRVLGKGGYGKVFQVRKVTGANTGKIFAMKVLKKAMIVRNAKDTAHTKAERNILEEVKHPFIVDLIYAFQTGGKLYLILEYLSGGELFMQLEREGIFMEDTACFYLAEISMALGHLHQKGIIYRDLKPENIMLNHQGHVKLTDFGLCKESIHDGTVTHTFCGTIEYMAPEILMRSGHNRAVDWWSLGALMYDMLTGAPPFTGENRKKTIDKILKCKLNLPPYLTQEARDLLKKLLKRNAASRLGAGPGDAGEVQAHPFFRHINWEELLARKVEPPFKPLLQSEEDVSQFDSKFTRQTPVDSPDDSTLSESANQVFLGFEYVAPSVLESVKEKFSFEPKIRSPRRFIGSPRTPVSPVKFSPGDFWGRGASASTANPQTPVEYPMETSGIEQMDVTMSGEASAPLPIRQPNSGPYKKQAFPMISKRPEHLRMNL
Sequence of IRAK4 (human), Q9NWZ3 [A81V] (Q9NWZ3 whole entry, looked up, stated change not applied): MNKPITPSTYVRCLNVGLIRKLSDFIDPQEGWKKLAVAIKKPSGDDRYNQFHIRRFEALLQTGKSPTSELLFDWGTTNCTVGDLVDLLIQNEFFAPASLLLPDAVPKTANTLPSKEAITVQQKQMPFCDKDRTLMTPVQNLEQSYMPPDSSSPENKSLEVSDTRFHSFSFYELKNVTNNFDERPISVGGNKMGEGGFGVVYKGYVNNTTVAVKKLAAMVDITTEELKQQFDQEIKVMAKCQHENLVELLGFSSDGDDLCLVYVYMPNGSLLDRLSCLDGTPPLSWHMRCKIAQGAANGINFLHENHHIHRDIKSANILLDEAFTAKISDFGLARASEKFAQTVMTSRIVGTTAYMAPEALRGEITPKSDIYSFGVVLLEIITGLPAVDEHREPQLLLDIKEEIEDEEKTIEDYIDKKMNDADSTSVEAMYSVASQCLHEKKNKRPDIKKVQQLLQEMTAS
Sequence of NEK2 (human) (P51955 whole entry, looked up): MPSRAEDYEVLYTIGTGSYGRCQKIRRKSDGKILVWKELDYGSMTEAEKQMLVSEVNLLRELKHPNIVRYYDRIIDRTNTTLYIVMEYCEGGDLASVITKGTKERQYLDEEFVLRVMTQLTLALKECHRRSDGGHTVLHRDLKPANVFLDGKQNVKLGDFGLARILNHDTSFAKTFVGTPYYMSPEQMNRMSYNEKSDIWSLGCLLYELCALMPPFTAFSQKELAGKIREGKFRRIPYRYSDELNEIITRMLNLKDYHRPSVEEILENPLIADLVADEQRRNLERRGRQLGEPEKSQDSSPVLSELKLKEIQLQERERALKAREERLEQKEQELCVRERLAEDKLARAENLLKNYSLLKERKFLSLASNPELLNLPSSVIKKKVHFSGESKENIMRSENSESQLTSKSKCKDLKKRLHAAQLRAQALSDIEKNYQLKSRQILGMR

A residual activity [1] of 14%, a residual activity [2] of 81% and a residual activity [3] of 65% were found for CN(C)S(=O)(=O)Nc1ccc2ccc3ncc(-c4cnn(C)c4)cc3c(=O)c2c1 in this work. For the same molecule, the residual activity [4] was 121%, the residual activity [5] was 108% and the residual activity [6] was 94%. It also gave a residual activity [7] of 117%, a residual activity [8] of 90% and a residual activity [9] of 100%. For the same molecule, the residual activity [10] was 101%, the residual activity [11] was 97% and the residual activity [12] was 105%. For the same molecule, the residual activity [13] was 101%, the residual activity [14] was 78% and the residual activity [15] was 100%. For the same molecule, the residual activity [16] was 97%, the residual activity [17] was 94% and the residual activity [18] was 93%. It also gave a residual activity [19] of 58%, a residual activity [20] of 102% and a residual activity [21] of 43%. The residual activity [22] was 94%.
